Square brackets hold non-standard residues; d marks the D form. Peptide text beside a SMILES is read from it. Trp(3S-Ph) = N[C@H](C(=O)O)[C@@H](c1ccccc1)c1c[nH]c2ccccc12; Trp(βR-Ph) = N[C@H](C(=O)O)[C@H](c1ccccc1)c1c[nH]c2ccccc12; d2Nal = N[C@H](Cc1ccc2ccccc2c1)C(=O)O; dBta = N[C@H](Cc1csc2ccccc12)C(=O)O; Inp = O=C(O)C1CCNCC1
Target: ghrelin receptor (Homo sapiens, UniProt Q92847)
Assay: IP-One assay
Assay type: cell-based
Settings: for potency loss relative to ghrelin: IP-One assay, COS7 cells with ghrelin receptor; for EC50 / E max [Δ%]: SEM; for E max [Δ%]: difference between constitutive activity and maximal effect, mean±SEM of >=2 independent experiments
[1] = normalized to ghrelin (5) efficacy (ghrelin analogues and multiple modified agonists)
[2] = normalized to KbFwLL-NH2 (15) (inverse agonists and 13)

Chain of ghrelin receptor (Q92847 whole entry): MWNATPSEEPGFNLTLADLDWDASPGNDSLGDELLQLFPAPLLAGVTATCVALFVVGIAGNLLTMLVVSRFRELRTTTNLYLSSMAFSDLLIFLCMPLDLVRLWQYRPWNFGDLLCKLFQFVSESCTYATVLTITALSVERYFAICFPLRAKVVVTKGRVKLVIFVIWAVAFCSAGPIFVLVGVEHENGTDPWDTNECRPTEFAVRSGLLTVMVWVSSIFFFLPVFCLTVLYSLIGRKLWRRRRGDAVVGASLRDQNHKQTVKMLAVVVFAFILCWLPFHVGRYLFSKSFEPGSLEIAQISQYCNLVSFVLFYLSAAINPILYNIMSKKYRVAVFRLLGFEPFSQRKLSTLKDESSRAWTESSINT

Structure (SMILES)	potency loss relative to ghrelin	EC50 [µM]	E max [Δ%] [1]	E max [Δ%] [2]
CCCCCCCC(=O)OC[C@H](NC(=O)[C@H](CO)NC(=O)CN)C(=O)N[C@H](C(=O)N[C@@H](CC(C)C)C(=O)N[C@@H](CO)C(=O)N1CCC[C@H]1C(=O)N[C@@H](CCC(=O)O)C(=O)N[C@@H](Cc1c[nH]cn1)C(=O)N[C@@H](CCC(N)=O)C(=O)N[C@@H](CCCNC(=N)N)C(=O)N[C@H](C(=O)N[C@@H](CCC(N)=O)C(=O)N[C@@H](CCC(N)=O)C(=O)N[C@@H](CCCNC(=N)N)C(=O)N[C@@H](CCCCN)C(=O)N[C@@H](CCC(=O)O)C(=O)N[C@@H](CO)C(=O)N[C@@H](CCCCN)C(=O)N[C@@H](CCCCN)C(=O)N1CCC[C@H]1C(=O)N1CCC[C@H]1C(=O)N[C@@H](C)C(=O)N[C@@H](CCCCN)C(=O)N[C@@H](CC(C)C)C(=O)N[C@@H](CCC(N)=O)C(=O)N1CCC[C@H]1C(=O)N[C@@H](CCCNC(=N)N)C(=O)O)C(C)C)[C@H](c1ccccc1)c1c[nH]c2ccccc12 [Peptide 6, Wrf^4‐ghrelin]	about 12 fold	0.0324	98±2 Δ%	–
CCCCCCCC(=O)OC[C@H](NC(=O)[C@H](CO)NC(=O)CN)C(=O)N[C@H](C(=O)N[C@@H](CC(C)C)C(=O)N[C@@H](CO)C(=O)N1CCC[C@H]1C(=O)N[C@@H](CCC(=O)O)C(=O)N[C@@H](Cc1c[nH]cn1)C(=O)N[C@@H](CCC(N)=O)C(=O)N[C@@H](CCCNC(=N)N)C(=O)N[C@H](C(=O)N[C@@H](CCC(N)=O)C(=O)N[C@@H](CCC(N)=O)C(=O)N[C@@H](CCCNC(=N)N)C(=O)N[C@@H](CCCCN)C(=O)N[C@@H](CCC(=O)O)C(=O)N[C@@H](CO)C(=O)N[C@@H](CCCCN)C(=O)N[C@@H](CCCCN)C(=O)N1CCC[C@H]1C(=O)N1CCC[C@H]1C(=O)N[C@@H](C)C(=O)N[C@@H](CCCCN)C(=O)N[C@@H](CC(C)C)C(=O)N[C@@H](CCC(N)=O)C(=O)N1CCC[C@H]1C(=O)N[C@@H](CCCNC(=N)N)C(=O)O)C(C)C)[C@@H](c1ccccc1)c1c[nH]c2ccccc12 [Peptide 7, Wsf^4‐ghrelin]	about 12 fold	0.0339	96±2 Δ%	–
CC(C)C[C@H](NC(=O)[C@H](CC(C)C)NC(=O)[C@@H](Cc1c[nH]c2ccccc12)NC(=O)[C@H](Cc1ccccc1)NC(=O)[C@@H](Cc1c[nH]c2ccccc12)NC(=O)[C@@H](N)CCCCN)C(N)=O [Peptide 8, KwFwLL‐NH2, reference compound]	–	0.182	–	66±3 Δ%
CC(C)C[C@H](NC(=O)[C@H](CC(C)C)NC(=O)[C@@H](Cc1c[nH]c2ccccc12)NC(=O)[C@H](Cc1ccccc1)NC(=O)[C@@H](NC(=O)[C@@H](N)CCCCN)[C@H](c1ccccc1)c1c[nH]c2ccccc12)C(N)=O [Peptide 9, K‐Wrf‐FwLL‐NH2]	–	–	–	72±2 Δ%
CC(C)C[C@H](NC(=O)[C@H](CC(C)C)NC(=O)[C@@H](Cc1c[nH]c2ccccc12)NC(=O)[C@@H](NC(=O)[C@@H](Cc1c[nH]c2ccccc12)NC(=O)[C@@H](N)CCCCN)[C@H](c1ccccc1)c1c[nH]c2ccccc12)C(N)=O [Peptide 11, Kw‐Wrf‐wLL‐NH2] (H-K[dW][Trp(βR-Ph)][dW]LL-NH2; N-terminus assumed)	–	0.148	–	55±4 Δ%
CC(C)C[C@H](NC(=O)[C@H](CC(C)C)NC(=O)[C@@H](Cc1c[nH]c2ccccc12)NC(=O)[C@@H](NC(=O)[C@@H](Cc1c[nH]c2ccccc12)NC(=O)[C@@H](N)CCCCN)[C@@H](c1ccccc1)c1c[nH]c2ccccc12)C(N)=O [Peptide 12, Kw‐Wsf‐wLL‐NH2] (H-K[dW][Trp(3S-Ph)][dW]LL-NH2; N-terminus assumed)	–	0.282	–	77±4 Δ%
CC(C)C[C@H](NC(=O)[C@H](CC(C)C)NC(=O)[C@@H](NC(=O)[C@H](Cc1ccccc1)NC(=O)[C@@H](Cc1c[nH]c2ccccc12)NC(=O)[C@@H](N)CCCCN)[C@H](c1ccccc1)c1c[nH]c2ccccc12)C(N)=O [Peptide 13, KwF‐Wrf‐LL‐NH2]	–	0.912	–	39±3 Δ%
CC(C)C[C@H](NC(=O)[C@H](CC(C)C)NC(=O)[C@@H](Cc1c[nH]c2ccccc12)NC(=O)[C@@H](NC(=O)[C@@H](Cc1csc2ccccc12)NC(=O)[C@@H](N)CCCCN)[C@H](c1ccccc1)c1c[nH]c2ccccc12)C(N)=O [Peptide 16, Kb‐Wrf‐wLL‐NH2] (H-K[dBta][Trp(βR-Ph)][dW]LL-NH2; N-terminus assumed)	–	0.55	–	56±3 Δ%
C[C@H](N)C(=O)N[C@H](Cc1c[nH]c2ccccc12)C(=O)N[C@@H](Cc1ccccc1)C(=O)N[C@H](Cc1ccc2ccccc2c1)C(=O)N1CCC(C(N)=O)CC1 [Peptide 18, AwFn‐Isn‐NH2, reference compound] (H-A[dW]F[d2Nal][Inp]-NH2; N-terminus assumed)	–	0.0166	110±6 Δ%	–
C[C@H](N)C(=O)N[C@H](Cc1c[nH]c2ccccc12)C(=O)N[C@@H](Cc1ccccc1)C(=O)N[C@H](C(=O)N1CCC(C(N)=O)CC1)[C@H](c1ccccc1)c1c[nH]c2ccccc12 [Peptide 20, AwF‐Wrf‐Isn‐NH2] (H-A[dW]F[Trp(βR-Ph)][Inp]-NH2; N-terminus assumed)	–	0.0275	105±3 Δ%	–
C[C@H](N)C(=O)N[C@H](Cc1c[nH]c2ccccc12)C(=O)N[C@@H](Cc1ccccc1)C(=O)N[C@H](C(=O)N1CCC(C(N)=O)CC1)[C@@H](c1ccccc1)c1c[nH]c2ccccc12 [Peptide 21, AwF‐Wsf‐Isn‐NH2] (H-A[dW]F[Trp(3S-Ph)][Inp]-NH2; N-terminus assumed)	–	0.0832	95±2 Δ%	–
